Measurements taken from patent US11530181B2, “IL-6 inhibitors and methods of treatment” (University of Florida Research Foundation, Incorporated, priority 2018, dated 2022).

Key:
[1] = system: STAT2 phosphorylation; experiment: Western blot, STAT2 phosphorylation in MCF7; type: cell-based, human; conditions: MCF7, pre-treatment 2, 3 and 4 hours
Procedure: FIG. 13. depicts the reduced effect on STAT1, STAT2, STAT4 and STAT6 phosphorylation by LLM418. The MCF7 cells were serum-starved overnight, then treated with LLM4 (15 μM) for 2, 3 and 4 hours. STAT1, STAT2, STAT4 and STAT6 phosphorylation were induced by INF-γ, INF-α and IL-4, respectively. The cells were harvested at 30 minutes and analyzed by western blot assays.
(§1) Cells were harvested and lysed in cold radioimmunoprecipitation assay (RIPA) lysis buffer containing proteasome inhibitor cocktail and phosphatase inhibitor cocktail. The protein concentrations were determined using the BCA Protein Assay kit. After adding the loading buffer and boiling at 95° C. for 10 minutes, equivalent amounts of proteins were loaded on and separated by SDS-PAGE, and then were transferred to PVDF membranes. Membranes were probed with primary antibodies (1:1000) against phospho-STAT3 (Tyr705), STAT3, phospho-STAT1 (Tyr701), STAT1, phospho-STAT6 (Tyr 641), STAT6, and GAPDH, respectively, and horseradish peroxidase (HRP)-conjugated secondary antibody (1:10000) (Cell Signaling Technology, Beverly, Mass.). Membranes were analyzed using Enhanced Chemiluminescence Plus reagents and either scanned with the Storm Scanner (Amersham Pharmacia Biotech, Inc., Piscataway, N.J.) or imaged with ChemiDoc MP imaging system (Bio-Rad, Hercules, Calif.). […] The cells were harvested after 30 minutes and analyzed by Western blot.

[2] = biological target: T1, gp130-D1-D3 (Homo sapiens, UniProt P40189); experiment: SPR direct binding to immobilized gp130-D1-D3 (CM5 chip); conditions: for Kd: SPR, gp130-D1-D3, linear regression at low concentrations, 25% Rmax; for ΔGexp: experimental binding energy from SPR KD
T1 construct: residues 1-301, the numbering system is based on PDB 3L5H, which is the mature form of gp130; tandem TFH purification tag (includes FLAG, as purified on anti-FLAG M2 agarose) (C); made in house; host or cells: Hi5 insect cells (baculovirus; virus generated in sf9)
T1 sequence (P40189 23-323): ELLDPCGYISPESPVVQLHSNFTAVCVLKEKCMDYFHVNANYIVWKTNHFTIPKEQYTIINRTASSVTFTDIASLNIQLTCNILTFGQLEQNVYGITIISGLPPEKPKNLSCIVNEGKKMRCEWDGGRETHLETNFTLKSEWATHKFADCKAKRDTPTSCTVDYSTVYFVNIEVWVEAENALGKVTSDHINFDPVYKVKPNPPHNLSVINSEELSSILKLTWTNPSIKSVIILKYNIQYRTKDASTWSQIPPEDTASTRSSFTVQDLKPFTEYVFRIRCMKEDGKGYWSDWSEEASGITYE

[3] = system: SUM159 breast cancer cell line; experiment: MTT cell viability assay, SUM159; type: cell-based, human; conditions: Homo sapiens, SUM159, 48 h, SUM159 (high IL-6), 0% FBS medium
[4] = system: STAT3 phosphorylation in BxPC-3 cells; experiment: Western blot, STAT3 phosphorylation in BxPC-3 (IL-6 autocrine); type: cell-based, human
Procedure: as §1, with “Calif.). For cytokine induction of STAT3 phosphorylation, MCF-7 breast cancer cells were seeded in 10 cm plates (1 million cells per plate) and allowed to adhere overnight followed by serum-starvation.” for “Calif.).”
BxPC-3 and SUM159 cells were seeded in 10 cm plates (1 million cells per plate) and allowed to adhere overnight. […] Then cells were harvested and analyzed by western blotting.

[5] = system: MDA-MB-231 breast cancer cell line; experiment: MTT cell viability assay, MDA-MB-231; type: cell-based, human; conditions: Homo sapiens; MDA-MB-231 (medium IL-6), 48 h, 0% FBS medium
Procedure: Human breast cancer cell lines MCF7, MDA-MB-231 and SUM159 were maintained in Dulbecco's modified Eagle medium (DMEM). Human pancreatic cancer cell line BxPC-3 was maintained in RPMI 1640 medium. Human pancreatic cancer cell line Capan-1 was maintained in Iscove's Modified Dulbecco's Medium (IMEM). All media were supplemented with 10% FBS and 1% penicillin/streptomycin, and cells were incubated in a humidified 37° C. incubator with 5% CO2. PE/CA-PJ49 cell line was purchased from external sources and maintained according to manufacturer's protocol.
Cell viability was evaluated by using the MTT assay in triple replicates in one experiment and repeated for three times. Cancer cells were seeded in 96-well plates at a density of 3,000 cells per well. The cells were incubated at 37° C. for a period of 24 hours. […] After incubation for 48 or 72 hours, a stock solution of MTT (0.5 mg/ml) was then added to each well containing the treated cells, followed by incubation at 37° C. for 3 h. After removal of medium, the MTT dye was dissolved with spectrophotometric grade DMSO and the absorbance was read at 570 nm. The IC50 value is determined by interpolation based on the absorbance value halfway between positive and negative controls. […]

[6] = system: CNTF induced STAT3 phosphorylation; experiment: Western blot, CNTF induced STAT3 phosphorylation in MCF7; type: cell-based, human; conditions: MCF7, 15 μM, 2, 3 and 4 hours
Procedure: as §1
MCF7 breast cancer cells were seeded in 10 cm plates (1 million cells per plate) and allowed to adhere overnight. […] The cells were harvested after 30 minutes and analyzed by western blotting.

O=C(Nc1ccccc1-c1ccn[nH]1)c1ccc(OCCN2CCCCC2)cc1 [LLM418, N-(2-(1H-pyrazol-5-yl)phenyl)-4-(2-(piperidin-1-yl)ethoxy)benzamide]
effect on STAT2 phosphorylation [1]: little effect
Kd [2]: 20.5 µM
ΔGexp [2]: -6.39 kcal/mol

O=C(Nc1cccc(OCCN2CCCCC2)c1)Nc1cccc(-c2ccn[nH]2)c1 [LLM414, 1-(3-(1H-pyrazol-5-yl)phenyl)-3-(3-(2-(piperidin-1-yl)ethoxy)phenyl)urea]
Kd [2]: 15.6 µM
ΔGexp [2]: -6.55 kcal/mol

O=C(Nc1cc(F)ccc1-n1cccc1)c1ccc(OCCCN2CCCCC2)cc1 [LLM4, N-(5-fluoro-2-(1H-pyrrol-1-yl)phenyl)-4-(3-(piperidin-1-yl)propoxy)benzamide]
IC50 [3]: 0.04 µM
inhibition of STAT3 phosphorylation ([4]; BxPC-3, 20 μM): almost complete inhibition
inhibition of STAT3 phosphorylation ([4]; BxPC-3, 5-20 μM, 16 h): inhibited STAT3 phosphorylation in BxPC-3 cells in a dose dependent manner
IC50 [5]: 0.97 µM
CNTF induced STAT3 phosphorylation [6]: remain intact
